Measured values taken from patent US8168597B2, “Method for treating cystic fibrosis” (Inspire Pharmaceuticals, Inc., priority 2008, dated 2012).

Test system: patients with mild CF lung disease
Assay: Multi-center, double-blind, randomized efficacy and safety study; change in lung function (FEV1) from baseline to Week 24
Format: in vivo, human
Settings: for FEV1 Change from baseline in Liters, Mean (Table 2): subgroups that did not take pulmozyme or inhaled antibiotics; for FEV1 Change from baseline in Liters, Mean (Table 3): pulmozyme/macrolide subgroups
Method: This is a multi-center, double-blind, randomized, efficacy and safety study of denufosol in patients with mild CF lung disease. Approximately 350 patients were enrolled and randomly assigned to receive one of two treatments, 60 mg denufosol TID or placebo TID, with approximately 175 patients assigned to each treatment group. Patients were administered study drug (denufosol) or placebo using the PARI LC STAR™ nebulizer and PART PRONEB Ultra™ compressor. At the end of the 24-week double-blind, placebo-controlled treatment period, placebo patients received 60 mg denufosol for a 24-week safety extension period. All patients on denufosol during the first 24 weeks continued to receive denufosol during the 24-week safety extension. Upon completion of study participation or discontinuation from study treatment, all patients were scheduled for a 1-week follow-up visit.
In general, CF patients took many medications as their usual standard of care. This study was designed to randomly assign patients either to denufosol or placebo on top of their usual standard of care. […] Patients were instructed whenever possible to use these medications consistently throughout the study.
All patients were instructed to inhale the study drug using normal tidal breathing via the PARI LC STAR™ reusable nebulizer and the PARI PRONEB™ Ultra compressor. A dose was considered complete after 15 minutes of inhalation or when the nebulizer sputters. Study drug was taken TID at the same time each day.
Primary efficacy endpoint was change in lung function, as measured by FEV1 (L), from baseline to Week 24 end point. Missing Week 24 data for patients who withdrew prior to Week 24 were imputed from the last available observation carried forward. Secondary efficacy endpoints included the following: time to first pulmonary exacerbation during the 24-week placebo-controlled treatment period; incidence of pulmonary exacerbations during the 24-week placebo-controlled treatment period; number of pulmonary exacerbations/time at risk (incidence density) during the 24-week placebo-controlled treatment period; change in lung function, as measured by FEV1 (L) from baseline to Weeks 4 and 12, and FVC (L) and FEF25%-75% (L/sec) from baseline to Weeks 4, 12, 24, and the end point. Other secondary efficacy endpoints include incidence of IV antibiotic use during the 24-week placebo-controlled treatment period; number of days of IV antibiotic use during the 24-week placebo-controlled treatment period; incidence of new use of antipseudomonal antibiotics during the 24-week placebo-controlled treatment period; incidence of hospitalizations/ER visits for a respiratory-related complaint during the 24-week placebo-controlled treatment period; number of days spent in the hospital for a respiratory-related complaint during the 24-week placebo-controlled treatment period; changes from baseline to Weeks 12 and 24 in Health-related Quality of Life as measured by the Cystic Fibrosis Questionnare and the Feeling Thermometer; and changes in utility assessment from baseline to Weeks 12 and 24 as measured by the Health Utilities Index; number of CF-related days lost from work or school during the 24-week placebo-controlled treatment period; and responses at Week 24 to the Patient Questionnaire.

Molecule	FEV1 Change from baseline in Liters, Mean (Table 2) (baseline to Week 24) [L]	adjusted means for change in lung function, as measured by FEV1, from baseline to Week 24 (macrolide users (97% azithromycin), 60 mg denufosol TID by inhalation, p-value 0.047 vs placebo group) [L]	improvement in FEV1 change in the macrolide group when treated with denufosol (vs placebo group) (macrolide users, baseline to Week 24)	FEV1 Change from baseline in Liters, Mean (Table 3) (baseline to Week 24) [L]
Nc1ccn([C@H]2C[C@H](O)[C@@H](COP(=O)(O)OP(=O)(O)OP(=O)(O)OP(=O)(O)OC[C@H]3O[C@@H](n4ccc(=O)[nH]c4=O)[C@H](O)[C@@H]3O)O2)c(=O)n1 [Denufosol, P^1-(uridine 5′-)-P^4-(2′-deoxycytidine 5′-) tetraphosphate]	0.0494	0.0288	+0.0745 L	–
CC[C@H]1OC(=O)[C@H](C)[C@@H](O[C@H]2C[C@@](C)(OC)[C@@H](O)[C@H](C)O2)[C@H](C)[C@@H](O[C@@H]2O[C@H](C)C[C@H](N(C)C)[C@H]2O)[C@](C)(O)C[C@@H](C)CN(C)[C@H](C)[C@@H](O)[C@]1(C)O [Macrolide (Azithromycin), azithromycin, reference compound]	0.0430	–	–	0.0430
Pulmozyme: CF medication taken as usual standard of care (alfa dornase) (protein, UniProt P24855 23-282, looked up) Deoxyribonuclease-1: LKIAAFNIQTFGETKMSNATLVSYIVQILSRYDIALVQEVRDSHLTAVGKLLDNLNQDAPDTYHYVVSEPLGRNSYKERYLFVYRPDQVSAVDSYYYDDGCEPCGNDTFNREPAIVRFFSRFTEVREFAIVPLHAAPGDAVAEIDALYDVYLDVQEKWGLEDVMLMGDFNAGCSYVRPSQWSSIRLWTSPTFQWLIPDSADTTATPTHCAYDRIVVAGMLLRGAVVPDSALPFNFQAAYGLSDQLAQAISDHYPVEVMLK	–	–	–	0.0659
